Source: patent US5736510A, “Antibiotics 10381v, w, x,y, z1, z2, pre-b and t” (priority 1996, dated 1998)
Like-named read-outs stand apart in the source and are kept apart here.

Legend:
Type in all cases: cell-based
R. amylophilus = details: strain H18; for Minimal Inhibitory Concentration (bioactivity data): Table IV (separate study)
S. faecalis = details: for M.I.C.: Table III, mass basis, no correction for purity; for Minimal Inhibitory Concentration (bioactivity data): Table IV (separate study)
[1] = test system: anaerobic bacteria which normally inhabit the gut of poultry, swine or cattle; assay: in vitro MIC assay, overall comparison of components across the test organisms; details: conclusion from Tables III and IV
Protocol: (§1) The assay measures the ability of a compound to inhibit the growth of certain types of anaerobic bacteria which normally inhabit the gut of poultry, swine or cattle.
(§2) Two mg/ml solutions of the drugs to be tested are made in 10% v/v ethanol/water. This stock is then diluted to one mg per ml and then further diluted through a series of ten-two fold dilutions. At each concentration an aliquot is placed in a sterile petri plate. Nine volumes of molten agar are then added to each plate, mixed and allowed to harden at room temperature. These plates are then transferred to a Coy chamber and allowed to dry and equilibrate with the oxygen free atmosphere.
(§3) Organisms used for MIC testing are inoculated into broth media, and incubated 18-24 h at 39° C. prior to use. The cultures are then diluted to equal the turbidity of a 0.5 MacFarland barium sulfate standard, except for the porcine isolates P108-3C1, P105-1C3 and P105-1C4 which are diluted 1:1. All inoculations and dilutions are performed in the anaerobic chamber using broth media and syringe transfer through the butyl robber stoppers.
(§4) Freshly prepared and diluted cultures are loaded into the wells of a Steers replicator device. This apparatus can dispense ca 10 μl of each of 32 cultures onto the surface of the preincubated agar plates. One hour after the inoculation, the inoculum will have been absorbed and the plates are inverted and incubated at 38°-39° C. for 48 h. Plates are then removed from the chamber and the MIC for the test compounds determined. MIC's are reported as the lowest concentration of a compound which prevented detectable growth of a test organism on the agar plates. […] Thus, each set of test plates yields individual MIC values for each of the 32 test organisms.

C. perfringens = test system: C. perfringens; set-up: Minimal Inhibitory Concentration (bioactivity data): unit not given here; details: for M.I.C.: Table III, mass basis, no correction for purity; for Minimal Inhibitory Concentration (bioactivity data): Table IV (separate study)
E. ruminantium = details: strain GA195; for Minimal Inhibitory Concentration (bioactivity data): Table IV (separate study)
B. fragilis = details: strain UC9370; for Minimal Inhibitory Concentration (bioactivity data): Table IV (separate study)
F. necrophorum = details: for M.I.C.: Table III, mass basis, no correction for purity; for Minimal Inhibitory Concentration (bioactivity data): Table IV (separate study)
S. hyodysenteriae = test system: S. hyodysenteriae; set-up: unit not given here; details: Table IV (separate study)
Protocol: as §1, §2, §3, §4

B. thetaiotaomicron = details: strain UC9014; for Minimal Inhibitory Concentration (bioactivity data): Table IV (separate study)
Protocol: as §1, §2, §3, §4

S. ruminantium = details: for M.I.C.: Table III, mass basis, no correction for purity; for Minimal Inhibitory Concentration (bioactivity data): Table IV (separate study)
R. flavefaciens = details: for M.I.C.: Table III, mass basis, no correction for purity; for Minimal Inhibitory Concentration (bioactivity data): Table IV (separate study)
S. bovis = details: strain JB1; for Minimal Inhibitory Concentration (bioactivity data): Table IV (separate study)
L. multiparus = details: strain 40; for Minimal Inhibitory Concentration (bioactivity data): Table IV (separate study)
E. lentum = details: strain L-34; Table IV (separate study)
P. ruminicola = details: strain 118B; for Minimal Inhibitory Concentration (bioactivity data): Table IV (separate study)
B. fibrisolvens = details: for M.I.C.: Table III, mass basis, no correction for purity; for Minimal Inhibitory Concentration (bioactivity data): Table IV (separate study)
M. elsdenii = details: strain B159; for Minimal Inhibitory Concentration (bioactivity data): Table IV (separate study)
[2] = Table III, mass basis, no correction for purity

Compound: C=C(NC(=O)C(=C)NC(=O)C(=C)NC(=O)c1ccc2c(n1)-c1nc(oc1C)C(C)NC(=O)c1csc(n1)C(C)NC(=O)c1nc(oc1C)CNC(=O)C(C(C)C)NC(=O)c1csc-2n1)C(N)=O (stereo not shown) [Antibiotic 10381x]
- M.I.C. (R. amylophilus; [2]): > 100.0 µg/mL
- Minimal Inhibitory Concentration (bioactivity data) (R. amylophilus): 25.0
- M.I.C. (S. faecalis; strain 71A01): 100.0 µg/mL
- Minimal Inhibitory Concentration (bioactivity data) (S. faecalis; strain 71A01): > 100
- M.I.C. (S. faecalis; strain CCS1-03): 50.0 µg/mL
- Minimal Inhibitory Concentration (bioactivity data) (S. faecalis; strain CCS1-03): > 100
- M.I.C. (S. faecalis; strain P1051C4): 50.0 µg/mL
- Minimal Inhibitory Concentration (bioactivity data) (S. faecalis; strain P1051C4): > 100
- in vitro activity ranking of the individual components [1]: considerably less active
- M.I.C. (C. perfringens; strain 71A02): 6.3 µg/mL
- M.I.C. (C. perfringens; strain A82-1): 50.0 µg/mL
- Minimal Inhibitory Concentration (bioactivity data) (C. perfringens; strain A82-1): > 100
- M.I.C. (C. perfringens; strain A83-3): 6.3 µg/mL
- Minimal Inhibitory Concentration (bioactivity data) (C. perfringens; strain A83-3): 25.0
- M.I.C. (C. perfringens; strain A83-RKP): 1.6 µg/mL
- Minimal Inhibitory Concentration (bioactivity data) (C. perfringens; strain A83-RKP): 50.0
- M.I.C. (C. perfringens; strain CCS1-11): 50.0 µg/mL
- M.I.C. (C. perfringens; strain CCS2-09): 1.6 µg/mL
- Minimal Inhibitory Concentration (bioactivity data) (C. perfringens; strain CCS2-09): 100
- M.I.C. (C. perfringens; strain P1051C3): > 100.0 µg/mL
- Minimal Inhibitory Concentration (bioactivity data) (C. perfringens; strain P1051C3): > 100
- M.I.C. (C. perfringens; strain P1083C1): 1.6 µg/mL
- Minimal Inhibitory Concentration (bioactivity data) (C. perfringens; strain P1083C1): 100
- M.I.C. (C. perfringens; strain RF1B04): 3.1 µg/mL
- Minimal Inhibitory Concentration (bioactivity data) (C. perfringens; strain RF1B04): 50.0
- M.I.C. (C. perfringens; strain UC9452): 6.3 µg/mL
- Minimal Inhibitory Concentration (bioactivity data) (C. perfringens; strain UC9452): 50.0
- M.I.C. (E. ruminantium; [2]): 3.1 µg/mL
- Minimal Inhibitory Concentration (bioactivity data) (E. ruminantium): 100
- M.I.C. (B. fragilis; [2]): 100.0 µg/mL
- Minimal Inhibitory Concentration (bioactivity data) (B. fragilis): > 100
- M.I.C. (F. necrophorum; strain FN4070): > 100.0 µg/mL
- Minimal Inhibitory Concentration (bioactivity data) (F. necrophorum; strain FN4070): > 100
- M.I.C. (F. necrophorum; strain FN5052): > 100.0 µg/mL
- Minimal Inhibitory Concentration (bioactivity data) (F. necrophorum; strain FN5052): > 100
- Minimal Inhibitory Concentration (bioactivity data) (S. hyodysenteriae; strain 16-4): > 100
- Minimal Inhibitory Concentration (bioactivity data) (S. hyodysenteriae; strain B204): > 100
- M.I.C. (B. thetaiotaomicron; [2]): 50.0 µg/mL
- Minimal Inhibitory Concentration (bioactivity data) (B. thetaiotaomicron): > 100
- M.I.C. (S. ruminantium; strain GA31): > 100.0 µg/mL
- Minimal Inhibitory Concentration (bioactivity data) (S. ruminantium; strain GA31): 6.3
- M.I.C. (S. ruminantium; strain GA192): > 100.0 µg/mL
- Minimal Inhibitory Concentration (bioactivity data) (S. ruminantium; strain GA192): 6.3
- M.I.C. (R. flavefaciens; strain C94): 3.1 µg/mL
- Minimal Inhibitory Concentration (bioactivity data) (R. flavefaciens; strain C94): > 100
- M.I.C. (R. flavefaciens; strain FD1): 6.3 µg/mL
- Minimal Inhibitory Concentration (bioactivity data) (R. flavefaciens; strain FD1): 100
- M.I.C. (S. bovis; [2]): 25.0 µg/mL
- Minimal Inhibitory Concentration (bioactivity data) (S. bovis): > 100
- M.I.C. (L. multiparus; [2]): 6.3 µg/mL
- Minimal Inhibitory Concentration (bioactivity data) (L. multiparus): > 100
- Minimal Inhibitory Concentration (bioactivity data) (E. lentum): < 0.2
- M.I.C. (P. ruminicola; [2]): 0.2 µg/mL
- Minimal Inhibitory Concentration (bioactivity data) (P. ruminicola): 12.5
- M.I.C. (B. fibrisolvens; strain 49): 1.6 µg/mL
- Minimal Inhibitory Concentration (bioactivity data) (B. fibrisolvens; strain 49): > 100
- M.I.C. (B. fibrisolvens; strain D1): 3.1 µg/mL
- Minimal Inhibitory Concentration (bioactivity data) (B. fibrisolvens; strain D1): 100
- M.I.C. (M. elsdenii; [2]): > 100.0 µg/mL
- Minimal Inhibitory Concentration (bioactivity data) (M. elsdenii): > 100

Compound: C=C1NC(=O)c2nc(oc2C)C(=CC)NC(=O)c2csc(n2)C(OC)NC(=O)c2nc(oc2C)C(=CC(C)O)NC(=O)C(C(C)O)NC(=O)c2csc(n2)-c2ccc(C(N)=O)nc2-c2coc(n2)C(=C)NC1=O (stereo not shown) [Antibiotic 10381v]
- Minimal Inhibitory Concentration (bioactivity data) (R. amylophilus): 3.1
- Minimal Inhibitory Concentration (bioactivity data) (S. faecalis; strain 71A01): > 100
- Minimal Inhibitory Concentration (bioactivity data) (S. faecalis; strain CCS1-03): > 100
- Minimal Inhibitory Concentration (bioactivity data) (S. faecalis; strain P1051C4): > 100
- in vitro activity ranking of the individual components [1]: considerably less active
- Minimal Inhibitory Concentration (bioactivity data) (C. perfringens; strain A82-1): > 100
- Minimal Inhibitory Concentration (bioactivity data) (C. perfringens; strain A83-3): 0.8
- Minimal Inhibitory Concentration (bioactivity data) (C. perfringens; strain A83-RKP): 1.6
- Minimal Inhibitory Concentration (bioactivity data) (C. perfringens; strain CCS2-09): > 100
- Minimal Inhibitory Concentration (bioactivity data) (C. perfringens; strain P1051C3): 100
- Minimal Inhibitory Concentration (bioactivity data) (C. perfringens; strain P1083C1): 100
- Minimal Inhibitory Concentration (bioactivity data) (C. perfringens; strain RF1B04): 0.8
- Minimal Inhibitory Concentration (bioactivity data) (C. perfringens; strain UC9452): 6.3
- Minimal Inhibitory Concentration (bioactivity data) (E. ruminantium): 12.5
- Minimal Inhibitory Concentration (bioactivity data) (B. fragilis): > 100
- Minimal Inhibitory Concentration (bioactivity data) (F. necrophorum; strain FN4070): 100
- Minimal Inhibitory Concentration (bioactivity data) (F. necrophorum; strain FN5052): > 100
- Minimal Inhibitory Concentration (bioactivity data) (S. hyodysenteriae; strain 16-4): > 100
- Minimal Inhibitory Concentration (bioactivity data) (S. hyodysenteriae; strain B204): > 100
- Minimal Inhibitory Concentration (bioactivity data) (B. thetaiotaomicron): > 100
- Minimal Inhibitory Concentration (bioactivity data) (S. ruminantium; strain GA31): 25.0
- Minimal Inhibitory Concentration (bioactivity data) (S. ruminantium; strain GA192): 100
- Minimal Inhibitory Concentration (bioactivity data) (R. flavefaciens; strain C94): 25.0
- Minimal Inhibitory Concentration (bioactivity data) (R. flavefaciens; strain FD1): 25.0
- Minimal Inhibitory Concentration (bioactivity data) (S. bovis): > 100
- Minimal Inhibitory Concentration (bioactivity data) (L. multiparus): > 100
- Minimal Inhibitory Concentration (bioactivity data) (E. lentum): 25.0
- Minimal Inhibitory Concentration (bioactivity data) (P. ruminicola): < 0.2
- Minimal Inhibitory Concentration (bioactivity data) (B. fibrisolvens; strain 49): 50.0
- Minimal Inhibitory Concentration (bioactivity data) (B. fibrisolvens; strain D1): 25.0
- Minimal Inhibitory Concentration (bioactivity data) (M. elsdenii): > 100
